Literature values, collected in patent publication US7498130B2, “Method of reducing viral load” (Massachusetts General Hospital, priority 2003, dated 2009).

Tests used:
HIV = conditions: infected cells
[1] = in vivo

For antithrombin III [ATIII], the “lowering HIV viral loads” value (HIV) is given as “inactive” and the overall elimination half-life [1] is given as 18.6 h.
